Test results from US8173696B2, “Inhibitors of cysteine proteases and methods of use thereof” (Baylor University, priority 2007, dated 2012).

What was measured:
Cruzain = Cruzain (Trypanosoma cruzi, UniProt P25779); test: biochemical; type: biochemical; conditions: Table A; 0.1 nM cruzain, pH 5.50, 25° C., 10 μM Z-Phe-Arg-AMC
Procedure: Cruzain (0.1 nM) in 100 mM sodium acetate buffer (pH 5.50) containing 5 mM DTT was preincubated for 5 min at 25° C. with inhibitor.

Cat B = Cat B (Homo sapiens, UniProt P07858); test: Cathepsin B inhibition in vitro; type: biochemical; conditions: Table A; read-out: Cat B IC50
Procedure: For in vitro cysteine protease inhibition determinations, a compound's effectiveness can be given by an IC50 value. In these assays, the enzyme to be inhibited (e.g., a cruzain or cruzipain, a rhodesain, a brucipain, a congopain, a falcipain, CPB2.8 Delta CTE, a cathepsin-L, cathepsin-B, a cathepsin-H, a cathepsin-K, a cathepsin-S) is first incubated with varying concentrations (about 20-50,000 nM) of a test compound. To this is added a short peptide substrate of the enzyme of 1 to 10 amino acids, usually a di- or tri-peptide substrate, which is labeled with either a fluorogenic or chromogenic moiety. An exemplary chromogenic moiety is p-nitro-anilide (pNA). […] Exemplary peptide substrates include Phe-Arg, Arg-Arg, Phe-Arg-X (X=Ala, Arg), and Phe-X-Ser-Arg-Gln (X=Arg, 4-aminomethyl-phenylalanine (Arm), 4-aminomethyl-N-isopropyl-phenylalanin-e (laf), 4-piperidinyl-alanine (Ppa) or 4-aminocyclohexyl-alanine (Aca)). Cleavage of the labeled substrate induces a chromogenic or fluorescent signal that is measured using spectrophotometer or a spectrofluorometer, respectively. Signals induced in the presence of varying concentrations of test compound are measured in comparison to a positive control of enzyme and substrate and a negative control of enzyme in diluent (e.g., DMSO). Spontaneous cleavage of substrate is measured in controls with substrate alone. IC50 values are determined graphically using compound inhibitor concentrations in the linear portion of a plot of inhibition versus log [I].

Human liver cathepsin L = biological target: T1, Human liver cathepsin L (Homo sapiens, UniProt P07711); test: Cathepsin L inhibition in vitro (Z-FR-AMC fluorescence); type: biochemical; conditions: Table A; 1 nM human liver cathepsin L, pH 5.5, 25° C., 50 μM Z-FR-AMC; read-out: Cat L IC50
T1 construct: from tissue; host or cells: human liver
T1 sequence (P07711 114-333): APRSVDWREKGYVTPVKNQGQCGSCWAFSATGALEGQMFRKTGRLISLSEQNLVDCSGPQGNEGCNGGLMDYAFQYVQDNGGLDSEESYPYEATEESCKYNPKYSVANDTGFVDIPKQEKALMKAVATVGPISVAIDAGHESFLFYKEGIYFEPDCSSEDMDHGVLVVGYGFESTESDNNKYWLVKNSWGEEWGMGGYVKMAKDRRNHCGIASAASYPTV
Procedure: Human liver cathepsin L (1 nM) was incubated in 50 mM sodium acetate buffer, pH 5.5 containing 1 mM EDTA, 2 mM DTT, 0.001% (v/v) brij 35 with potential inhibitors at 20 different concentrations (from 0.05 nM to 50 μM) at 25° C. for 5 minutes before 100 μL substrate (benzyloxycarbonyl-L-phenylalanyl-L-arginyl-7-amido-4-methylcoumarin, abbreviated as Z-FR-AMC, 50 μM in final assay condition) was added to the enzyme-inhibitor mixture; total volume was 200 μL. Controls were performed using enzyme alone, substrate alone, and enzyme with DMSO. […] Spectra were taken at 3-sec intervals for 3 minutes. IC50 values were determined by non-linear regression analysis using vo(inh)=VMAX/{1+10(logIC50−x)*Hillslope} and Prism software (GraphPad).

cathepsin L [1] = test: Inhibition of activated cathepsin L in DU-145 cell lysates; type: cell-based; conditions: DU-145 cell lysates preincubated for 24 h with compound, following removal of media, replicate samples a-c; for activity (cathepsin L activity after activation): control 6.93E−03; for cps (cathepsin L activity after activation): control 26950
Procedure: (§1) A prostrate carcinoma derived cell line (DU-145) was maintained in free phenol red DMEM supplemented with 10% fetal bovine serum, 1% glutamine, 1% glutamax, 1% Penicillin-Streptomycin and 1 mM sodium pyruvate, at 37° C. in an atmosphere of 95% air/5% CO2. DU145 was plated at 4×10^6 cells/10 cm Petri dish for dense, super confluent density. These cultures were incubated for 3 days before collection. Twenty-four hours prior to harvesting, cells were fed with serum-free media or serum-free media containing inhibitors at a final concentration of 20 μM. On the day of harvesting, the serum-free medium was collected for assay of Cathepsin L activity secreted in the medium. The cells were rinsed in cold PBS (pH 7.2) and collected in cold PBS containing […]. The cells were lysed using a Sonicator (Misonix 3000) at medium setting with pauses at 0° C. for temperature equilibration. Then the homogenate was centrifuged at 13,000×g for 20 min and the supernatant saved. […] Fluorescence was measured in a Fluoro Max 2 (Jobin Yvon) spectrofluorometer at an excitation wavelength of 355 nm and an emission wavelength of 460 nm. The substrate is hydrolyzed by cathepsin L and to a smaller extent by cathepsin B, therefore the activity is referred to as cathepsin L+B activity. Data analysis was performed using Prism software (GraphPad version 4). Data corresponding to cathepsin L activity (after activation) in cell lysates preincubated for 24 h with Compound 14 and following the removal of media is summarized in Table 5 below. Data corresponding to cathepsin L activity (after activation) in cell lysates preincubated for 24 h with Compound 27 and following the removal of media is summarized in Table 6 below.

cathepsin L [2] = test: Inhibition of activated cathepsin L secreted in DU-145 cell conditioned media; type: cell-based; conditions: compound 20 μM, replicate samples a-c
Procedure: as §1, with “cell conditioned media in the presence of” for “cell lysates preincubated for 24 h with”, “14 (20 μM)” for “14 and following the removal of media”, “Table 3” for “Table 5”, “27 (20 μM)” for “27 and following the removal of media”, “Table 4” for “Table 6”

Chain of Cruzain (P25779 123-467): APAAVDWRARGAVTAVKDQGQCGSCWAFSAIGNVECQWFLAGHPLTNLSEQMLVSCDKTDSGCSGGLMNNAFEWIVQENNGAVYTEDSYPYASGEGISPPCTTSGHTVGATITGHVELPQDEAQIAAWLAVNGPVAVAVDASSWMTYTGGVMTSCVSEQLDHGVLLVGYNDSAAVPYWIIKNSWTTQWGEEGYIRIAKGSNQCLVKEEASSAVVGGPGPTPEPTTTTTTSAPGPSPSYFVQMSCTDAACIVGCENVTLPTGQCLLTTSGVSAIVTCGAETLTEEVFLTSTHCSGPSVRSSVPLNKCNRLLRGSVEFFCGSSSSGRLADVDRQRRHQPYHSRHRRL

NC(=S)NN=C(c1cccc(Br)c1)c1cccc(Br)c1 [Compound 14, Bis(3-bromophenyl) ketone thiosemicarbazone]
IC50 (Cruzain): 24 nM
IC50 (Cat B): > 3000 nM
IC50 (Human liver cathepsin L): 1.5 nM
activity (cathepsin L activity after activation) (cathepsin L [1]; listed as 14a): 0.00161 µM/s
activity (cathepsin L activity after activation) (cathepsin L [1]; listed as 14b): 0.00144 µM/s
activity (cathepsin L activity after activation) (cathepsin L [1]; listed as 14c): 0.00129 µM/s
cps (cathepsin L activity after activation) (cathepsin L [1]; listed as 14a): 6259 cps
cps (cathepsin L activity after activation) (cathepsin L [1]; listed as 14b): 5608 cps
cps (cathepsin L activity after activation) (cathepsin L [1]; listed as 14c): 5003 cps
activity (cathepsin L activity after activation) (cathepsin L [2]; control 1.50E−03, listed as 14a): 0.000186 µM/s
activity (cathepsin L activity after activation) (cathepsin L [2]; control 1.50E−03, listed as 14b): 0.000165 µM/s
activity (cathepsin L activity after activation) (cathepsin L [2]; control 1.50E−03, listed as 14c): 0.000127 µM/s
cps (cathepsin L activity after activation) (cathepsin L [2]; control 5848, listed as 14a): 722.5 cps
cps (cathepsin L activity after activation) (cathepsin L [2]; control 5848, listed as 14b): 641.2 cps
cps (cathepsin L activity after activation) (cathepsin L [2]; control 5848, listed as 14c): 495 cps
